From patent US6992079B2, “Substituted 11-phenyl-dibenzazepine compounds useful for the treatment or prevention of diseases characterized by abnormal cell proliferation” (President Fellows of Harvard College, priority 1997, dated 2006)
Where two headings read alike, the source gives them in different places. Marks after values point to notes of the source that are not given here.

Legend:
[1] = Preliminary toxicology, subcutaneous injection for 14 days; assay type: in vivo, CD-1 female mice; details: CD-1 female mice; 80 mg/kg/day s.c. 14 days
Description: The toxicological effects of CLT, and compounds 28, 30 and 31 were tested in CD-1 female mice. A dose of 80 mg/kg/day was given to each mouse via subcutaneous injection for a period of 14 days. Preliminary toxicological data was determined by measuring body weight, gross pathology of organs blood chemistry and histology. The vehicle used was DMF 12%+2% Tween 20 88%.

RL-60 (TS) = assay: In-Vitro Testing SRB panel: Leukemia; assay type: cell-based; details: 48 h
RPMI-8226 = assay: In-Vitro Testing SRB panel: Leukemia; assay type: cell-based; details: RPMI-8226, 48 h
ROP-62 = assay type: cell-based; details: 48 h
ROP-92 = assay type: cell-based; details: 48 h
NCI-H23 = assay type: cell-based; details: NCI-H23, 48 h
HT29 = assay: In-Vitro Testing SRB panel: Colon Cancer; assay type: cell-based
SF-268 = assay: In-Vitro Testing SRB panel: CNS Cancer; assay type: cell-based; details: SF-268, 48 h
SNB-19 = assay: In-Vitro Testing SRB panel: CNS Cancer; assay type: cell-based; details: SNB-19, 48 h
LOX IMVI = assay: In-Vitro Testing SRB panel: Melanoma; assay type: cell-based; details: 48 h
M14 = assay: In-Vitro Testing SRB panel: Melanoma; assay type: cell-based; details: M14, 48 h
UACC-257 = assay: In-Vitro Testing SRB panel: Melanoma; assay type: cell-based; details: UACC-257, 48 h
SN12C = assay: In-Vitro Testing SRB panel: Renal Cancer; assay type: cell-based; details: 48 h
TK-10 = assay: In-Vitro Testing SRB panel: Renal Cancer; assay type: cell-based; details: TK-10, 48 h
[2] = In-Vitro Testing SRB panel: Renal Cancer; assay type: cell-based; details: 48 h
HS 578T = assay: In-Vitro Testing SRB panel: Breast Cancer; assay type: cell-based; details: 48 h
BT-549 = assay: In-Vitro Testing SRB panel: Breast Cancer; assay type: cell-based; details: BT-549, 48 h
[3] = Homo sapiens, read-out: LC50 (the source's name)

O=C(c1ccc([N+](=O)[O-])cc1)N1Cc2ccccc2C(c2ccccc2Cl)c2ccccc21 (stereo not shown) [Compound 28, N-(4′-Nitrobenzoyl)-11-(2′-chlorophenyl)-5,6-dihydro-11H-dibenz[b,e]azepine]
Body Weight Change [1]: 107%
Liver Weight [1]: 1.51 ± 0.08^c g
RBC [1]: 8.1 ± 0.6 10^6/mm^3
WBC [1]: 7.5 ± 0.8 10^3/mm^3
WBC, RBC, BUN and creatine levels [1]: no differences were found
GI50 (RL-60 (TS); Homo sapiens): 0.489 µM
CC50 (RL-60 (TS); Homo sapiens, RL-60 (TS), read-out: LC50 (the source's name)): > 100 µM
TGI (RL-60 (TS); RL-60 (TS)): 7.71E−05 Molar
Percent Growth (RL-60 (TS); RL-60 (TS), log10 conc −4.0 Molar): 1%
Percent Growth (RL-60 (TS); RL-60 (TS), log10 conc −5.0 Molar): 5%
Percent Growth (RL-60 (TS); RL-60 (TS), log10 conc −6.0 Molar): 41%
Percent Growth (RL-60 (TS); RL-60 (TS), log10 conc −7.0 Molar): 71%
Percent Growth (RL-60 (TS); RL-60 (TS), log10 conc −8.0 Molar): 76%
GI50 (RPMI-8226; Homo sapiens): 0.522 µM
CC50 (RPMI-8226; [3]): > 100 µM
TGI (RPMI-8226): >1.00E−04 Molar
Percent Growth (RPMI-8226; log10 conc −4.0 Molar): 12%
Percent Growth (RPMI-8226; log10 conc −5.0 Molar): 36%
Percent Growth (RPMI-8226; log10 conc −6.0 Molar): 46%
Percent Growth (RPMI-8226; log10 conc −7.0 Molar): 61%
Percent Growth (RPMI-8226; log10 conc −8.0 Molar): 74%
GI50 (ROP-62; Homo sapiens): 13.1 µM
CC50 (ROP-62; Homo sapiens, ROP-62, read-out: LC50 (the source's name)): > 100 µM
TGI (ROP-62; ROP-62): >1.00E−04 Molar
Percent Growth (ROP-62; ROP-62, log10 conc −4.0 Molar): 38%
Percent Growth (ROP-62; ROP-62, log10 conc −5.0 Molar): 52%
Percent Growth (ROP-62; ROP-62, log10 conc −6.0 Molar): 60%
Percent Growth (ROP-62; ROP-62, log10 conc −7.0 Molar): 89%
Percent Growth (ROP-62; ROP-62, log10 conc −8.0 Molar): 91%
GI50 (ROP-92; Homo sapiens): 7.51 µM
CC50 (ROP-92; Homo sapiens, ROP-92, read-out: LC50 (the source's name)): > 100 µM
TGI (ROP-92; ROP-92): >1.00E−04 Molar
Percent Growth (ROP-92; ROP-92, log10 conc −4.0 Molar): 19%
Percent Growth (ROP-92; ROP-92, log10 conc −5.0 Molar): 46%
Percent Growth (ROP-92; ROP-92, log10 conc −6.0 Molar): 79%
Percent Growth (ROP-92; ROP-92, log10 conc −7.0 Molar): 104%
Percent Growth (ROP-92; ROP-92, log10 conc −8.0 Molar): 100%
GI50 (NCI-H23; Homo sapiens): 1.61 µM
CC50 (NCI-H23; [3]): > 100 µM
TGI (NCI-H23): >1.00E−04 Molar
Percent Growth (NCI-H23; log10 conc −4.0 Molar): 41%
Percent Growth (NCI-H23; log10 conc −5.0 Molar): 43%
Percent Growth (NCI-H23; log10 conc −6.0 Molar): 52%
Percent Growth (NCI-H23; log10 conc −7.0 Molar): 93%
Percent Growth (NCI-H23; log10 conc −8.0 Molar): 100%
TGI (HT29; HT29, 48 h): >1.00E−04 Molar
Percent Growth (HT29; HT29, log10 conc −4.0 Molar, 48 h): 27%
Percent Growth (HT29; HT29, log10 conc −5.0 Molar, 48 h): 27%
Percent Growth (HT29; HT29, log10 conc −6.0 Molar, 48 h): 38%
Percent Growth (HT29; HT29, log10 conc −7.0 Molar, 48 h): 78%
Percent Growth (HT29; HT29, log10 conc −8.0 Molar, 48 h): 86%
GI50 (HT29; Homo sapiens, HT-29, 48 h): 0.505 µM
CC50 (HT29; Homo sapiens, HT-29, HT29, 48 h, read-out: LC50 (the source's name)): > 100 µM
GI50 (SF-268; Homo sapiens): 1.66 µM
CC50 (SF-268; [3]): > 100 µM
TGI (SF-268): >1.00E−04 Molar
Percent Growth (SF-268; log10 conc −4.0 Molar): 19%
Percent Growth (SF-268; log10 conc −5.0 Molar): 34%
Percent Growth (SF-268; log10 conc −6.0 Molar): 55%
Percent Growth (SF-268; log10 conc −7.0 Molar): 81%
Percent Growth (SF-268; log10 conc −8.0 Molar): 94%
GI50 (SNB-19; Homo sapiens): 3.27 µM
CC50 (SNB-19; [3]): > 100 µM
TGI (SNB-19): >1.00E−04 Molar
Percent Growth (SNB-19; log10 conc −4.0 Molar): 32%
Percent Growth (SNB-19; log10 conc −5.0 Molar): 44%
Percent Growth (SNB-19; log10 conc −6.0 Molar): 56%
Percent Growth (SNB-19; log10 conc −7.0 Molar): 95%
Percent Growth (SNB-19; log10 conc −8.0 Molar): 99%
TGI (LOX IMVI): >1.00E−04 Molar
GI50 (LOX IMVI; Homo sapiens): 0.382 µM
CC50 (LOX IMVI; [3]): > 100 µM
Percent Growth (LOX IMVI; log10 conc −4.0 Molar): 9%
Percent Growth (LOX IMVI; log10 conc −5.0 Molar): 8%
Percent Growth (LOX IMVI; log10 conc −6.0 Molar): 19%
Percent Growth (LOX IMVI; log10 conc −7.0 Molar): 93%
Percent Growth (LOX IMVI; log10 conc −8.0 Molar): 103%
GI50 (M14; Homo sapiens): 0.941 µM
CC50 (M14; [3]): > 100 µM
TGI (M14): 2.19E−05 Molar
Percent Growth (M14; log10 conc −4.0 Molar): −32%
Percent Growth (M14; log10 conc −5.0 Molar): 16%
Percent Growth (M14; log10 conc −6.0 Molar): 49%
Percent Growth (M14; log10 conc −7.0 Molar): 85%
Percent Growth (M14; log10 conc −8.0 Molar): 94%
GI50 (UACC-257; Homo sapiens): 0.441 µM
CC50 (UACC-257; [3]): > 100 µM
TGI (UACC-257): >1.00E−04 Molar
Percent Growth (UACC-257; log10 conc −4.0 Molar): 6%
Percent Growth (UACC-257; log10 conc −5.0 Molar): 9%
Percent Growth (UACC-257; log10 conc −6.0 Molar): 35%
Percent Growth (UACC-257; log10 conc −7.0 Molar): 78%
Percent Growth (UACC-257; log10 conc −8.0 Molar): 81%
TGI (SN12C): >1.00E−04 Molar
GI50 (SN12C; Homo sapiens): 4.52 µM
CC50 (SN12C; [3]): > 100 µM
Percent Growth (SN12C; log10 conc −4.0 Molar): 23%
Percent Growth (SN12C; log10 conc −5.0 Molar): 36%
Percent Growth (SN12C; log10 conc −6.0 Molar): 77%
Percent Growth (SN12C; log10 conc −7.0 Molar): 103%
Percent Growth (SN12C; log10 conc −8.0 Molar): 100%
GI50 (TK-10; Homo sapiens): 51.3 µM
CC50 (TK-10; [3]): > 100 µM
TGI (TK-10): >1.00E−04 Molar
Percent Growth (TK-10; log10 conc −4.0 Molar): 48%
Percent Growth (TK-10; log10 conc −5.0 Molar): 54%
Percent Growth (TK-10; log10 conc −6.0 Molar): 76%
Percent Growth (TK-10; log10 conc −7.0 Molar): 93%
Percent Growth (TK-10; log10 conc −8.0 Molar): 102%
TGI ([2]; DO-31): >1.00E−04 Molar
Percent Growth ([2]; DO-31, log10 conc −4.0 Molar): 14%
Percent Growth ([2]; DO-31, log10 conc −5.0 Molar): 28%
Percent Growth ([2]; DO-31, log10 conc −6.0 Molar): 56%
Percent Growth ([2]; DO-31, log10 conc −7.0 Molar): 111%
Percent Growth ([2]; DO-31, log10 conc −8.0 Molar): 105%
GI50 ([2]; Homo sapiens): 1.69 µM
CC50 ([2]; Homo sapiens, DO-31, read-out: LC50 (the source's name)): > 100 µM
TGI (HS 578T; HS 578T): >1.00E−04 Molar
Percent Growth (HS 578T; HS 578T, log10 conc −4.0 Molar): 42%
Percent Growth (HS 578T; HS 578T, log10 conc −5.0 Molar): 121%
Percent Growth (HS 578T; HS 578T, log10 conc −6.0 Molar): 125%
Percent Growth (HS 578T; HS 578T, log10 conc −7.0 Molar): 187%
Percent Growth (HS 578T; HS 578T, log10 conc −8.0 Molar): 193%
GI50 (HS 578T; Homo sapiens, Hs-578T): 80.2 µM
CC50 (HS 578T; Homo sapiens, HS 578T, read-out: LC50 (the source's name)): > 100 µM
TGI (BT-549): >1.00E−04 Molar
Percent Growth (BT-549; log10 conc −4.0 Molar): 34%
Percent Growth (BT-549; log10 conc −5.0 Molar): 46%
Percent Growth (BT-549; log10 conc −6.0 Molar): 70%
Percent Growth (BT-549; log10 conc −7.0 Molar): 87%
Percent Growth (BT-549; log10 conc −8.0 Molar): 98%
GI50 (BT-549; Homo sapiens): 6.7 µM
CC50 (BT-549; [3]): > 100 µM
